The values that follow come from ChEMBL document CHEMBL4387773, “Identification of potent, selective and orally bioavailable phenyl ((R)-3-phenylpyrrolidin-3-yl)sulfone analogues as RORγt inverse agonists” (Bioorg Med Chem Lett, 2019).

Molecules are shown by their SMILES.

In series [1] the target is T1, Oxysterols receptor LXR-beta (Homo sapiens, UniProt P55055).
T1 sequence (P55055 whole entry): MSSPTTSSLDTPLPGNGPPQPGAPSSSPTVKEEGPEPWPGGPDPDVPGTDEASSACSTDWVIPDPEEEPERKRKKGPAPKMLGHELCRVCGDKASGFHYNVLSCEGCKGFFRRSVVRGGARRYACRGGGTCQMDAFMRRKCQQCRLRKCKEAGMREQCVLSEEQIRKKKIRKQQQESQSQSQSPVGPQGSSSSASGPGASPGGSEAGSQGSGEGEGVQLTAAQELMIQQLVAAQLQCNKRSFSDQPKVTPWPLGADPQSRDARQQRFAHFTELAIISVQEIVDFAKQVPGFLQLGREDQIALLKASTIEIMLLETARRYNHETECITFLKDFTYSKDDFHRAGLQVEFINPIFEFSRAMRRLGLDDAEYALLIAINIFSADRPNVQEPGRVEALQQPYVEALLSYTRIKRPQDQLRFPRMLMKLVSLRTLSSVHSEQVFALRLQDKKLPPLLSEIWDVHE
The series is described as follows: Transactivation of human GAL4-fused LXRbeta expressed in African green monkey CV1 cells. The format is cell-based.

Series [2] deals with T2, Oxysterols receptor LXR-alpha (Homo sapiens, UniProt Q13133).
T2 sequence (Q13133 whole entry): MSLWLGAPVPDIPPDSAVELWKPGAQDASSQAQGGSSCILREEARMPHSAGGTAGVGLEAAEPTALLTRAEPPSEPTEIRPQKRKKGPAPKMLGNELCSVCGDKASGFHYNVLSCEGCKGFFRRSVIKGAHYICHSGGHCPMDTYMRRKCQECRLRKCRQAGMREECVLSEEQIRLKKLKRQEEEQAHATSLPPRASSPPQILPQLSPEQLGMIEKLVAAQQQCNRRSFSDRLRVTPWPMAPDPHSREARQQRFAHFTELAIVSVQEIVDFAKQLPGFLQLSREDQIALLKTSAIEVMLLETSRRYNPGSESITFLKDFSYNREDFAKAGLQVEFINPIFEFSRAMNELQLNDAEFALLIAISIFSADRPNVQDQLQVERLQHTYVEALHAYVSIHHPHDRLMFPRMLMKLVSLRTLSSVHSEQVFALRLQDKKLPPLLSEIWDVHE
Kind of series: Transactivation of human GAL4-fused LXRalpha expressed in African green monkey CV1 cells. The class given is cell-based.

Series [3] deals with T3, Nuclear receptor ROR-alpha (Homo sapiens, UniProt P35398).
T3 sequence (P35398 whole entry): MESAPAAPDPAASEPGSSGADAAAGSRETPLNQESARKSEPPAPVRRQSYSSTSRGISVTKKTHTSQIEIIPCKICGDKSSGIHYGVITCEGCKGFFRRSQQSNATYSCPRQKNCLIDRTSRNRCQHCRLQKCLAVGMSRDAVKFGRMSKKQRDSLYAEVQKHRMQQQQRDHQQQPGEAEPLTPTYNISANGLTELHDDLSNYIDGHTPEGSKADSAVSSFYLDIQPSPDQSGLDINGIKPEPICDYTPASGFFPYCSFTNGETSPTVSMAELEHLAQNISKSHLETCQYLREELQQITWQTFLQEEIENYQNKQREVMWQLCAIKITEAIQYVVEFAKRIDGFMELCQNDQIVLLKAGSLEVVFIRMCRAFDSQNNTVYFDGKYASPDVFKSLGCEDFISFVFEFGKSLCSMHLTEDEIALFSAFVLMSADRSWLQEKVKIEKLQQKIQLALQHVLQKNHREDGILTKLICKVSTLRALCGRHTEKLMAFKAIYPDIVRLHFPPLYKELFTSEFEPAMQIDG
The series is described as follows: Inverse agonist activity at human Gal4-fused RORalpha LBD (272 to 556 residues) expressed in human Jurkat cells measured after 18 hrs by steady-glo luciferase reporter gene assay. The class given is cell-based. (In general: In a reporter assay the amount or activity of a reporter protein is the signal.)

Series [4] addresses T4, Nuclear receptor ROR-beta (Homo sapiens, UniProt Q92753).
T4 sequence (Q92753 whole entry): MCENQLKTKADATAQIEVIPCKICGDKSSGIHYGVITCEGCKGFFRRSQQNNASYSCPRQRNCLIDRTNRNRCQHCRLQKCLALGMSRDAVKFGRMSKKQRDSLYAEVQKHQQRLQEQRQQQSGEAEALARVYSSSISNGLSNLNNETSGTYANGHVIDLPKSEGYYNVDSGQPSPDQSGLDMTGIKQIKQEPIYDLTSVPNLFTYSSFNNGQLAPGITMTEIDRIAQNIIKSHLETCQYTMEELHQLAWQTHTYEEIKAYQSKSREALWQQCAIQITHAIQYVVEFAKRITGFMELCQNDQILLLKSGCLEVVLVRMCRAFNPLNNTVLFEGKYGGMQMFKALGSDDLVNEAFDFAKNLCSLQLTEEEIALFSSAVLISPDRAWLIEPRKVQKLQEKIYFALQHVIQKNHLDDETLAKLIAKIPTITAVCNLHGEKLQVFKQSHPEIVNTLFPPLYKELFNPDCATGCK
The series is described as follows: Inverse agonist activity at human Gal4-fused RORbeta LBD (200 to 559 residues) expressed in human Jurkat cells measured after 18 hrs by steady-glo luciferase reporter gene assay. The class given is cell-based.

Series [5] can be described thus: Stability in mouse liver microsomes assessed as parent compound remaining after 10 mins. The class given is ADME, Microsome. The note with it: for Stability: microsomes, 10 min; for remaining at 10 min: liver microsomes, read-out: Stability. (Liver microsomes are vesicles of endoplasmic reticulum, rich in cytochrome P450 enzymes.)
In series [6] the target is T5, Nuclear receptor subfamily 1 group I member 2 (Homo sapiens, UniProt O75469).
T5 sequence (O75469 whole entry): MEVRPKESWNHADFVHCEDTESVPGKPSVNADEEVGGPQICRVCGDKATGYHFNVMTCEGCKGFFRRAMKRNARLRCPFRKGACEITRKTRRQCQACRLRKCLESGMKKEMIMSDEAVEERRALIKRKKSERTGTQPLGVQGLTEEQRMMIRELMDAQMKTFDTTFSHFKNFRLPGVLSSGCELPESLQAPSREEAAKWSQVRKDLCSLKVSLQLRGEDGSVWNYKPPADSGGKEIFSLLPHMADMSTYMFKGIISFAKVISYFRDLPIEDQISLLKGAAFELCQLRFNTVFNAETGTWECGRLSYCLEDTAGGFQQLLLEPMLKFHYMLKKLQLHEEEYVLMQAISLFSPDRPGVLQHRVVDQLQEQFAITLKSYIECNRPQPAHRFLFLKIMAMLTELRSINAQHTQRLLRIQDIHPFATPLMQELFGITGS
Kind of series: Transactivation of PXR (unknown origin) expressed in human HepG2 cells. The format is cell-based.

A short description of series [7]: Stability in human liver microsomes assessed as parent compound remaining after 10 mins. The format is ADME, Microsome. The note with it: for Stability: microsomes, 10 min; for remaining at 10 min: liver microsomes, read-out: Stability.
Series [8] addresses T5, Nuclear receptor subfamily 1 group I member 2. The series is described as follows: (§1) Transactivation of PXR (unknown origin) expressed in human HepG2 cells assessed as maximum receptor activation response relative to control. The class given is cell-based. As to conditions: hepg2.
The target in series [9] is T6, Nuclear receptor ROR-gamma (Homo sapiens, UniProt P51449).
T6 sequence (P51449 whole entry): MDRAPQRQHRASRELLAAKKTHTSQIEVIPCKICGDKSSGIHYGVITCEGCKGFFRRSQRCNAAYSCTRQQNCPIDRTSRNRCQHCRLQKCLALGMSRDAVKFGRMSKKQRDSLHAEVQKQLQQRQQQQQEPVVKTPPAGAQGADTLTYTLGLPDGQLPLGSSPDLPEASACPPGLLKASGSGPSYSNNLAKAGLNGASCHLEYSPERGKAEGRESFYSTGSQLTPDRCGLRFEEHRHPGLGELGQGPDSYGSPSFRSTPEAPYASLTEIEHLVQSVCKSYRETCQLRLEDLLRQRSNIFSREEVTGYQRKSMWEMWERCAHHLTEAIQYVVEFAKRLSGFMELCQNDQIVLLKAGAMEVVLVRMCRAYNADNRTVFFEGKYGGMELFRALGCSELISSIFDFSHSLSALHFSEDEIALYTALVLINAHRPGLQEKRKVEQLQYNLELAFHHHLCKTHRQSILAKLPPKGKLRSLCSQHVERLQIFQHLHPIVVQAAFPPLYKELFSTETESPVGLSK
Kind of series: Inverse agonist activity at human Gal4-fused RORgammat LBD (267 to 516 residues) expressed in human Jurkat cells measured after 18 hrs by steady-glo luciferase reporter gene assay. The format is cell-based.

Another series deals with T7, PXR (Homo sapiens, UniProt O75469).
T7 sequence (O75469 whole entry): T5 sequence (O75469 whole entry)
Described as §1. The class given is cell-based. As to conditions: human HepG2 cells that express PXR, read-out: %max.

Consider `O=C1NC(=O)C2(CCC(C(=O)N3CC[C@](c4ccc(C(F)(C(F)(F)F)C(F)(F)F)cc4)(S(=O)(=O)c4ccc(F)cc4)C3)CC2)N1` (stereo in doubt; 25), for which the EC50 in series [1] is > 7.5 µM; in [2] it was > 7.5 µM; in [3] (jurkat), > 40 µM; in series [4] (jurkat) it was > 40 µM; in series [6], > 50 µM. In addition, the figures for the Stability in series [5] and in series [7] were 82% and 93%, respectively. For the same compound, the “%max” value in series [8] was determined as 3%.
Consider `O=C(C1CCS(=O)(=O)C1)N1CC[C@](c2ccc(C(F)(C(F)(F)F)C(F)(F)F)cc2)(S(=O)(=O)c2ccc(F)cc2)C1` (stereo in doubt; 33), for which the EC50 was > 7.5 µM in series [1]; > 7.5 µM in series [2]; > 40 µM in [3] (jurkat); > 40 µM in series [4] (jurkat); 7.2 µM in [6]. Further, the Stability in series [5] was determined as 96%. Besides, the “%max” value in series [8] is 37%.
Regarding `O=C(O)C1CCC(O)(C(=O)N2CC[C@](c3ccc(C(F)(C(F)(F)F)C(F)(F)F)cc3)(S(=O)(=O)c3ccc(F)cc3)C2)CC1` (stereo in doubt; 12), the EC50 was > 7.5 µM in series [1]; > 7.5 µM in series [2]; > 40 µM in series [3]; > 40 µM in series [4]; > 50 µM in series [6]. In addition, the remaining at 10 min in series [5] came to 99%; in series [7], 100%. In series [8], the “%max” value was 9%.
As for `C[C@]1(C(=O)N2CC[C@](c3ccc(C(F)(C(F)(F)F)C(F)(F)F)cc3)(S(=O)(=O)c3ccc(F)cc3)C2)CC[C@H](C(=O)O)CC1`, the EC50 is > 7.5 µM in series [1]; > 7.5 µM in series [2]; > 40 µM in [3]; > 40 µM in series [4]; > 50 µM in series [6]; 0.056 µM in series [9]. Further, the results for the remaining at 10 min in series [5] and in series [7] were 95% and 80%, respectively. Further, the Emax on PXR was found to be 7%.
`CS(=O)(=O)C1CCC(C(=O)N2CC[C@](c3ccc(C(F)(C(F)(F)F)C(F)(F)F)cc3)(S(=O)(=O)c3ccc(F)cc3)C2)CC1` (stereo in doubt; 28): the EC50 in series [1] was > 7.5 µM; in series [2] it was > 7.5 µM; in [3], > 40 µM; in series [4] it was > 40 µM; in series [6], 1.8 µM. For the same compound, the remaining at 10 min in [5] came to 69%; in series [7], 88%. Besides, the “%max” value in [8] was found to be 29%.
With `C[C@]1(C(=O)N2CC[C@](c3ccc(C(F)(C(F)(F)F)C(F)(F)F)cc3)(S(=O)(=O)c3ccc(F)cc3)C2)CC[C@@H](C(=O)O)CC1`, the EC50 was > 7.5 µM in [1]; > 7.5 µM in series [2]; > 40 µM in series [3]; > 40 µM in series [4]; > 50 µM in series [6]; 0.776 µM in series [9]. The remaining at 10 min in [5] turned out to be 100%; in series [7], 85%. In addition, the Emax at PXR was 18%.
Consider `O=C1NC(=O)C2(CCC(C(=O)N3CC[C@](c4ccc(C(F)(C(F)(F)F)C(F)(F)F)cc4)(S(=O)(=O)c4ccc(F)cc4)C3)CC2)N1` (stereo in doubt; 24), for which the EC50 in [1] is > 7.5 µM; in series [2] it was > 7.5 µM; in [3] it was > 40 µM; in series [4] it was > 40 µM; in [6], > 14 µM. For the same compound, the remaining at 10 min turned out to be 81% in series [5] and 84% in series [7]. Further, in [8], the “%max” value was 28%.
For `O=C(O)C1CCC(O)(C(=O)N2CC[C@](c3ccc(C(F)(C(F)(F)F)C(F)(F)F)cc3)(S(=O)(=O)c3ccc(F)cc3)C2)CC1` (stereo in doubt; 13), the EC50 in [1] is > 7.5 µM; in series [2], > 7.5 µM; in series [3] (jurkat), > 40 µM; in [4] (jurkat), > 40 µM; in [6] (hepg2), > 50 µM. Further, the Stability in [5] worked out at 98%; in series [7] it was 95%. Moreover, the “%max” value in series [8] amounted to 19%.
As for `CS(=O)(=O)C1CCC(C(=O)N2CC[C@](c3ccc(C(F)(C(F)(F)F)C(F)(F)F)cc3)(S(=O)(=O)c3ccc(F)cc3)C2)CC1` (stereo in doubt; 29), the EC50 in series [1] was > 7.5 µM; in series [2], > 7.5 µM; in [3] (jurkat), > 40 µM; in [4] (jurkat) it was > 40 µM; in series [6], > 50 µM. In series [7], the Stability is recorded as 100%. Besides, the “%max” value in series [8] came to 6%.

One may read the EC50 as the concentration at which the effect is half-maximal.
